Tests used:
[1] = Nav 1.7 or Nav 1.5 IWQ In Vitro Assay: HEK 293 Cells stably transfected with either Nav 1.7 or Nav 1.5 were recorded in population patch-clamp mode with the IonWorks® Quattro automated electrophysiology system in accordance with the manufacturer's specifications (Molecular Devices, LLC, Sunnyvale, Calif.). Sodium channel currents were measured in response to a train of depolarizations that induced successively greater inactivation.Cells were held at −110 mV for three seconds (Nav 1.7) or half a second (Nav 1.5) from a holding voltage of −15 mV, then put through a series of 26 pulses of 150 msec duration to −20 mV at a frequency of 5 Hz. Cells were then left unclamped for a period of 3 to 8 minutes while a single concentration of test compound was added. Cells were then reclamped and put through the same voltage protocol. Current at the end of the 26th pulse to −20 mV was subtracted from the peak current evoked by the 26th pulse to −20 mV to correct for leak current. Percent block was calculated for each concentration in duplicate, and IC50 curves were fitted to percent block as a function of concentration.; settings: HEK293
[2] = Nav 1.7 In Vitro PX Assay: HEK 293 cells stably transfected with human Nav1.7 were recorded in whole cell voltage clamp mode with the PatchXpress automated electrophysiology system (Molecular Devices, LLC, Sunnyvale, Calif.). Compound effects were measured on a partially inactivated state of the sodium channel. Cells were clamped to a holding potential yielding 20 to 50% inactivation. To elicit sodium current, channels were activated by pulsing to −10 mV for 20 msec. This voltage protocol was repeated at a rate of 0.1 Hz throughout the experiment. A single concentration of test compound was applied to cells for a duration of 3 minutes. Peak sodium current was measured at the end of the compound addition period to determine percent inhibition. Three to five cells were tested per concentration, and IC50 curves were fitted to percent inhibition as a function of concentration.; settings: HEK293

Structure (SMILES)	IC50 [1] [nM]	IC50 [2] [nM]
COc1cc(C#CC2(C(F)(F)F)CC2)c(F)cc1-n1c(=O)ccc2cc(S(=O)(=O)Nc3ccon3)ccc21	8	–
COc1cc(C#C[C@@H]2C[C@@H]2C(F)(F)F)c(F)cc1-n1c(=O)ccc2cc(S(=O)(=O)Nc3ccon3)ccc21	5.5	139
COc1cc(C#CC2CCCC2)c(F)cc1-n1c(=O)ccc2cc(S(=O)(=O)Nc3ccon3)ccc21	4.53	17.3
COc1cc(C#CC2(OCC(F)(F)F)CCCC2)c(F)cc1-n1c(=O)ccc2cc(S(=O)(=O)Nc3ccon3)ccc21	9.73	33.8
COc1cc(C#CC2CCCC2)c(Cl)cc1-n1c(=O)ccc2cc(S(=O)(=O)Nc3ccon3)ccc21	10	18.6
COc1cc(C#C[C@H]2C[C@@H]2C(F)(F)F)c(F)cc1-n1c(=O)ccc2cc(S(=O)(=O)Nc3ccon3)ccc21	–	210

From ChEMBL document CHEMBL5727835, “Alkynyl dihydroquinoline sulfonamide compounds” (2020)
